Holding throughout (assay type): functional, cell-based
Assay [1] has as its system A549. Nature of the assay: Antiproliferative activity against human A549 cells assessed as cell viability by WST-1 assay.
For another assay, the system named is MV4-11. Nature of the assay: Antiproliferative activity against human MV4-11 cells assessed as cell viability by WST-1 assay.
For the next assay, the system named is MG-63. Description: Antiproliferative activity against human MG-63 cells assessed as cell viability by WST-1 assay.
The subject of another assay is NCI-H23. Nature of the assay: Antiproliferative activity against human NCI-H23 cells assessed as cell viability by WST-1 assay.
A further assay deals with MDA-MB-231. Nature of the assay: Antiproliferative activity against human MDA-MB-231 cells assessed as cell viability by WST-1 assay.
Another assay relates to MDA-MB-468. Nature of the assay: Antiproliferative activity against human MDA-MB-468 cells assessed as cell viability by WST-1 assay.
Assay [2] deals with HeLa. Nature of the assay: Antiproliferative activity against human HeLa cells assessed as cell growth inhibition measured after 24 hrs by MTT assay.
Another assay has as its system THP-1. Description: Antiproliferative activity against human THP-1 cells assessed as cell growth inhibition measured after 24 hrs by MTT assay. The conditions noted are these: THP-1, 24 h.
Another assay has as its system HepG2. Nature of the assay: Antiproliferative activity against human HepG2 cells assessed as cell growth inhibition measured after 24 hrs by MTT assay. The conditions noted are these: HepG2, 24 h.
Another assay deals with K562. Description: Antiproliferative activity against human K562 cells assessed as cell growth inhibition measured after 24 hrs by MTT assay. To be noted: K562, 24 h.
The next assay concerns GCIY. Nature of the assay: Antiproliferative activity against human GCIY cells assessed as cell growth inhibition measured after 72 hrs.
The nature of assay [3]: Antiproliferative activity against human SH-10-TC cells assessed as cell growth inhibition measured after 72 hrs.
The subject of the next assay is HCT-116. Description: Antiproliferative activity against human HCT-116 cells assessed as cell growth inhibition measured after 72 hrs. To be noted: HCT-116, 72 h.
For the next assay, the system named is DLD-1. Nature of the assay: Antiproliferative activity against human DLD-1 cells assessed as cell growth inhibition measured after 72 hrs. To be noted: DLD-1, 72 h.
Assay [4] concerns A549. Nature of the assay: Antiproliferative activity against human A549 cells assessed as cell growth inhibition measured after 72 hrs. To be noted: A549, 72 h.
Another assay relates to ACHN. Description: Antiproliferative activity against human ACHN cells assessed as cell growth inhibition measured after 72 hrs.
For another assay, the system named is Huh-7. Nature of the assay: Antiproliferative activity against human Huh-7 cells assessed as cell growth inhibition measured after 72 hrs. To be noted: Huh-7, 72 h.
Assay [5] is described as follows: Antiproliferative activity against human OVK18 cells assessed as cell growth inhibition measured after 72 hrs. To be noted: OVK18, 72 h.
The next assay deals with MCF7. Nature of the assay: Antiproliferative activity against human MCF7 cells assessed as cell growth inhibition measured after 72 hrs. The conditions noted are these: MCF7, 72 h.
The subject of a further assay is A-431. Nature of the assay: Antiproliferative activity against human A-431 cells assessed as cell growth inhibition measured after 72 hrs. To be noted: A-431, 72 h.
For the next assay, the system named is HuCCT-1. Description: Antiproliferative activity against human HuCCT-1 cells assessed as cell growth inhibition measured after 72 hrs. The conditions noted are these: HuCCT-1, 72 h.
The subject of the next assay is 8505C. Nature of the assay: Antiproliferative activity against human 8505C cells assessed as cell growth inhibition measured after 72 hrs.
A further assay has as its system G-361. Description: Antiproliferative activity against human G-361 cells assessed as cell growth inhibition measured after 72 hrs. To be noted: G-361, 72 h.
The next assay has as its system PC-3. Description: Antiproliferative activity against human PC-3 cells assessed as cell growth inhibition measured after 72 hrs. To be noted: PC-3, 72 h.
Assay [6] is described as follows: Antiproliferative activity against human PK-1 cells assessed as cell growth inhibition measured after 72 hrs. To be noted: PK-1, 72 h.
Assay [7] concerns HeLa. Description: Antiproliferative activity against human HeLa cells assessed as cell growth inhibition measured after 72 hrs by MTT assay. The conditions noted are these: Homo sapiens, HeLa, 72 h.
For a further assay, the system named is Ca-Ski. Nature of the assay: Antiproliferative activity against human Ca-Ski cells assessed as cell growth inhibition measured after 72 hrs by MTT assay.

Molecules are shown by their SMILES. Bounds are passed on as bounds.

Drawing on ChEMBL document CHEMBL5244235, “Diarylpentanoids with antitumor activity: A critical review of structure-activity relationship studies” (Eur J Med Chem, 2020), this text covers IC50 and EC50 for 11 compounds.

As to `O=C1/C(=C/c2ccc(Cl)cc2Cl)CNC/C1=C\c1ccc(Cl)cc1Cl`, the IC50 in the assay with A549 [1], in the assay on MV4-11, with MG-63, with NCI-H23, in the assay on MDA-MB-231 and with MDA-MB-468 was 390 nM each time.

As for `O=C1/C(=C/c2cccc(/N=C/c3ccccc3O)c2)CCC/C1=C\c1cccc(/N=C/c2ccccc2O)c1`, the IC50 in the assay with HeLa [2], in the assay with THP-1, in the assay with HepG2 and with K562 was less than 5 µM in each case.

With `COc1ccc(/C=C2\CC(C)C/C(=C\c3ccc(OC)c(OC)c3)C2=O)cc1OC` (stereo unspecified), the IC50 (with GCIY; in assay [3]; with HCT-116; in the assay on DLD-1; in the assay on A549 [4]; in the assay with ACHN) was more than 50000 nM in each case. Besides, the IC50 (in the assay with Huh-7; in assay [5]; in the assay with MCF7; with A-431; in the assay with HuCCT-1; in the assay on 8505C) was more than 50000 nM throughout. The IC50 (with G-361; with PC-3; in assay [6]) was more than 50000 nM each time.

On to `COc1cc(CCC(O)CCc2cc(OC)c(OC)c(OC)c2)cc(OC)c1OC`, for which the IC50 (in the assay on GCIY; in assay [3]; in the assay with HCT-116; in the assay with DLD-1; in the assay with A549 [4]; in the assay on ACHN) was more than 50000 nM in each case. The IC50 (with Huh-7; in assay [5]; in the assay on MCF7; in the assay on A-431; in the assay with HuCCT-1; in the assay with 8505C) was more than 50000 nM in each case. Moreover, the IC50 (in the assay with G-361; in the assay with PC-3; in assay [6]) was more than 50000 nM throughout.

Turning to `COc1cc(/C=C2\CN(C(C)=O)C/C(=C\c3cc(OC)c(OC)c(OC)c3)C2=O)cc(OC)c1OC`, the 50% inhibitory concentration (IC50) with A549 [1], in the assay on MV4-11, with MG-63, with NCI-H23, in the assay on MDA-MB-231 and with MDA-MB-468 was 390 nM throughout.

`CCOC(C)COc1c(OC)cc(/C=C/C(=O)/C=C/c2cc(OC)c(OC)c(OC)c2)cc1OC` (stereo unspecified): the half-inhibitory concentration (IC50) (in the assay on GCIY; in [3]; in the assay on HCT-116; in the assay with DLD-1; in the assay on A549 [4]; in the assay on ACHN) was 1000 nM in each case. The IC50 (in the assay with Huh-7; in assay [5]; in the assay on MCF7; in the assay on A-431; with HuCCT-1; in the assay with 8505C) was 1000 nM throughout. Besides, the IC50 (in the assay with G-361; in the assay with PC-3; in assay [6]) was 1000 nM throughout.

`O=C1/C(=C/c2cccc(/N=C/c3cccc(O)c3O)c2)CCC/C1=C\c1cccc(/N=C/c2cccc(O)c2O)c1`: the IC50 in the assay on HeLa [2], in the assay with THP-1, with HepG2 and with K562 was less than 5 µM each time.

Turning to `O=C(/C=C/c1cccc(F)c1)/C=C/c1cccc(F)c1`, the EC50 in the assay on HeLa [7] and with Ca-Ski was 1030 nM throughout.

`O=C1/C(=C/c2cccc(/N=C/c3ccc(O)c(O)c3O)c2)CCC/C1=C\c1cccc(/N=C/c2ccc(O)c(O)c2O)c1`: the half-inhibitory concentration (IC50) in the assay with HeLa [2], with THP-1, in the assay on HepG2 and in the assay with K562 was less than 5 µM in each case.

Regarding `COc1cc(/C=C/C(=O)/C=C/c2cccc(O)c2)cc(OC)c1OC`, the IC50 (with GCIY; in assay [3]; in the assay on HCT-116; in the assay with DLD-1; with A549 [4]; with ACHN) was 1000 nM in each case. Further, the IC50 (in the assay on Huh-7; in assay [5]; in the assay on MCF7; in the assay with A-431; in the assay on HuCCT-1; with 8505C) was 1000 nM in each case. The IC50 (in the assay with G-361; with PC-3; in [6]) was 1000 nM in each case.

For `CCOC(C)Oc1cccc(/C=C/C(=O)/C=C/c2cc(OC)c(OC)c(OC)c2)c1` (stereo unspecified), the IC50 (in the assay with GCIY; in assay [3]; in the assay on HCT-116; in the assay on DLD-1; in the assay with A549 [4]; with ACHN) was 1000 nM in each case. The IC50 (in the assay on Huh-7; in assay [5]; with MCF7; in the assay with A-431; in the assay on HuCCT-1; in the assay with 8505C) was 1000 nM in each case. For the same compound, the IC50 (in the assay on G-361; with PC-3; in assay [6]) was 1000 nM each time.
